# B1: Fit-3 ligand: cytokine, 50 ng/mL alone in culture (protein, UniProt P49771 27-235, looked up)
# Fms-related tyrosine kinase 3 …: TQDCSFQHSPISSDFAVKIRELSDYLLQDYPVTVASNLQDEELCGGLWRLVLAQRWMERLKTVAGSKMQGLLERVNTEIHFVTKCAFQPPPSCLRFVQTNISRLLQETSEQLVALKPWITRQNFSRCLELQCQPDSSTLPPPWSPRPLEATAPTAPQPPLLLLLLLPVGLLLLAAAWCLHWQRTRRRTPRPGEQVPPVPSPQDLLLVEH
# How the values were obtained:
# [1] = test system: PI 3-kinase; format: cell-based, mouse
# Excerpt: In order to determine a potential mechanism through which PTN mediates HSC expansion, an examination was made as to whether PTN altered pathways that are known to be affected by RPTPβ/ζ (Meng et al, Proc Natl Acad Sci USA 97: 2603-8 (2000), Stoica et al, J Biol Chem 276:16772-9 (2001), Landgraf et al, J Biol Chem 283:25036-45 (2008), Deuel et al, Arch Biochem Biophys 397:162-71 (2002)). Canonical PTN signaling occurs via binding and inactivation of RPTPβ/ζ (Meng et al, Proc Natl Acad Sci USA 97: 2603-8 (2000)), which can facilitate the tyrosine phosphorylation of several intracellular substrates, including Akt and β-catenin (Souttou et al, J Biol Chem 272:19588-93 (1997), Gu et al, FEBS Lett 581:382-8 (2007)). […] BM 34^− KSL cells were treated with TSF with and without 100 ng/mL PTN in the presence and absence of 10 μM wortmannin, a PI 3-kinase inhibitor (Souttou et al, J Biol Chem 272:19588-93 (1997)).
# [2] = test system: Bone marrow lineage negative (lin-) progenitor cells; test: 7 day culture of bone marrow lin- progenitor cells with individual cytokines or TSF with and without PTN; format: cell-based; conditions: 7 days, individual cytokine
# Method: Bone marrow lineage negative (lin-) progenitor cells were placed in culture for 7 days with 20 ng/mL thromobopoietin (TPO), 120 ng/mL stem cell factor (SCF) or 50 ng/mL Flt-3 ligand or the combination of all 3 cytokines (TSF) with and without 100 ng/mL pleiotrophin (PTN).
Molecule,reduction in BM KSL cell expansion compared to TSF+PTN alone [1] [fold],reduction in total cell expansion compared to TSF+PTN alone [1] [fold],support of BM progenitor cells in culture [2]
COC[C@H]1OC(=O)c2coc3c2[C@@]1(C)C1=C(C3=O)[C@@H]2CCC(=O)[C@@]2(C)C[C@H]1OC(C)=O [wortmannin],8.1,3.4,
"SCF: stem cell factor, 120 ng/mL, with or without PTN",,,modest expansion
"thromobopoietin: cytokine, 20 ng/mL alone in culture",,,Neither thromobopoietin alone nor Fit-3 ligand alone supported viable BM progenitor cells
B1,,,Neither thromobopoietin alone nor Fit-3 ligand alone supported viable BM progenitor cells

# Reference: patent US20150216933A1, “HEMATOPOIETIC STEM CELL GROWTH FACTOR” (DUKE UNIVERSITY, priority 2008, published 2015)
